Key:
[1] = tested on: vitamin D-binding protein; assay: Competitive protein binding analysis (CBPA) with 3H-25-OH-vitamin D as tracer, cross reactions; design: species or system goat
Procedure: In each case 100 μl vitamin D binding protein, isolated from goat serum (1:15000 in assay buffer with 3% (w/v) PEG 6000) together with 10 μl standard, control or sample (10 μl result from the sample preparation) was placed in the wells. The microtitration plate was incubated for 24 hours at 4EC in the dark and subject to shaking. Then, the solution was removed from the wells and the wells washed five times in each case with 200 μl washing buffer.
Insofar as no other indication is given, all reagents, buffers and materials were the same as in above-mentioned Example 3. There served as competitive binding partner (tracer) tritium-labelled 25-OH-vitamin D3. Differing from Example 3, the measurement samples were purified by means of extraction (into individual values). For this purpose, in each case 50 μl sample [non-specific assay buffer NSB, standard, control, patients sample (plasma, serum or urine)] was introduced into a 1.5 ml disposable reaction container, 200 μl acetonitrile added, mixed, the container walls centrifuged free, and the mixture incubated for 20 to 30 minutes at 4EC. The mixture was centrifuged at 1700×g for 10 minutes. The determinations were effected with the results using duplicate values.
For this purpose 25 μl clear result was transferred to a glass test tube (or into a special-RIA-container from Sarstedt, Darmstadt) and 10 μl tracer (3H-25-OH-D), 300 μl assay buffer and 100 μl vitamin D-binding protein (not in NSB) added. The test tube contents were mixed, incubated for one hour at 4EC and, to remove non-bound radioactive tracer, 100 μl activated charcoal suspension (activated charcoal containing phosphate buffer with 0.1% NaN3) was added. The test tube content was mixed, incubated for 3 to 5 minutes at 4EC, and the active charcoal pelletized by means of centrifuging for 10 minutes at 1700×g. Then, in each case 400 μl of the result was transferred to a counter container (7 ml) and, after the addition of 2 ml scintillator liquid such as Aquasafe™ 300 or HiSafe™ III, the radioactivity present in the result was counted (2 minutes in a beta-counter). […]

[2] = tested on: vitamin D binding protein from goat serum; assay: RIA for determining competition with 3H-25-OH-vitamin D3 and displacement efficiency; design: unit not given here; details: tracer 3H-25-OH-vitamin D3
Procedure: Displacement efficiencies on vitamin D binding protein from goat serum and competition with ^3H-250H-vitamin D3 were measured for three vitamin D derivates using a RIA. The tested derivatives were 25-OH-vitamin D, biotinylated 25-OH-vitamin D3 of example 1 and 25-OH-D3 dimer of example 10.
The dimer having a short spacer has a lower displacement efficiecy than the corresponding biotinylated compound with the longer spacer group. […] For comparision, compound C in WO 97/24127 (Holick et al.) could only displace the tritiated compound from human vitamin D binding protein when it was present in eleven-fold excess. […] A longer spacer group in the vitamin D dimer leads to a higher affinity to DBP. An eleven fold lower affinity on the other hand is typical for vitamin D derivatives lacking the 25 hydroxy group which is essential for high affinity to vitamin D binding protein DBP.

[3] = Stability of the 25-OH-D3-biotin compound in protonic solvent (NMR, HPLC); assay type: physicochemical; details: protonic solvent pH 4-5; for HPLC analysis, compound intact: 200 days
Procedure: In each case 20 mg purified 25-OH-D3-biotin compound (25-OH-vitamin D3-3β-3′[6-N-(biotinyl)-hexamido]amidopropylether) from Example 1 was placed in an NMR test tube to which 1 ml solvent was added. The solvent was a mixture of deuterium chloroform:deuterium acetonitrile: D2O in the ratio 3:2:1 with a pH-value between 4 and 5. The samples were stored for 200 days under the conditions set out below and the NMR spectra were investigated at regular intervals. • Sample 1: light excluded at −20EC; • Sample 2 light excluded at +4−6EC; • Sample 3: light excluded at room temperature; • Sample 4: subject to strong light (on a window ledge) at room temperature.
An HPLC analysis confirmed that samples 1 and 2 were intact even after 200 days in protonic solvent.

[4] = 250 nmol/l added to serum treated with activated charcoal

Compound	cross-reaction [1, 4]	B/Bo ([2]; Conc. 0.1 ng/ml)	B/Bo ([2]; Conc. 1 ng/ml)	B/Bo ([2]; Conc. 10 ng/ml)	B/Bo ([2]; Conc. 100 ng/ml)	B/Bo ([2]; Conc. 1000 ng/ml)	other results
C=C1CCC(O)C/C1=C\C=C1\CCCC2(C)C1CCC2C(C)CCC(O)C(C)(C)O (centres unmarked) [24,25-(OH)2-vitamin D3]	100%						
C=C1/C(=C\C=C2/CCC[C@]3(C)[C@@H]([C@H](C)CCCC(C)(C)O)CC[C@@H]23)C[C@@H](O)C[C@@H]1O [1,25-(OH)2-vitamin D3]	no cross-reactivity						
C=C1CC[C@H](OCCCNC(=O)CCCCCNC(=O)CCCCC2SCC3NC(=O)NC32)C/C1=C/C=C1\CCC[C@@]2(C)C1CC[C@@H]2C(C)CCCC(C)(C)O (stereo partly drawn) [Biotin-25OH-D3, 25-Hydroxy vitamin D3-3β-3′[6-N-(biotinyl)hexamido]-amidopropylether]		100	99	63	15	8	HPLC analysis, compound intact ([3]; Sample 1: light excluded at -20EC): intact; HPLC analysis, compound intact ([3]; Sample 2: light excluded at +4-6EC): intact; HPLC analysis, compound still intact ([3]; Sample 3: light excluded at room temperature, after 100 days): more than 78%; degradation ([3]; Sample 4: strong light (window ledge) at room temperature): degraded after two months
C=C1CC[C@H](O)C/C1=C/C=C1\CCC[C@]2(C)[C@@H]([C@H](C)CCCC(C)(C)O)CC[C@@H]12 [25-OH-D3, 25-OH-vitamin D3, reference compound]		100	92	33	10	7	
C=C1CC[C@H](O)C/C1=C/C=C1\CCC[C@]2(C)[C@@H]([C@H](C)/C=C/[C@H](C)C(C)(C)O)CC[C@@H]12 [25-OH-vitamin D2]							cross-reaction ([1]; 125 nmol/l added to serum treated with activated charcoal): 60%

— patent publication US8133694B2, “Functional vitamin D derivatives and method of determining 25-hydroxy- and 1α, 25-dihydroxy vitamin D” (Immundiagnostik AG, priority 1998, dated 2012)
